Results on two sequences are retold here after patent US20100093642A1, “NOVEL POLYPEPTIDES” (priority 2006, published 2010).

One series relates to THP-1 cells. Briefly: in vitro. The class given is cell-based, human. The procedure:
The toxicity of test peptides on THP-1 cells was measured using the MIT method (Mosmann, 1983), with minor modifications. To induce monocyte-macrophage differentiation, THP-1 cells were cultured in 96-well culture plates (10^6 cells/well) in a volume of 100 μl RPMI 1640 medium, containing 50 ng/ml PMA (which is known to induce the maturation of monocytes) and incubated in a humidified atmosphere of 5% CO2 at 37° C. for 48 hours. The medium was then removed and the cells were washed with PBS, added 100 μl fresh medium (without PMA) and incubated for another 24 hours. Medium was removed and the adherent macrophages were treated with 100 μl of peptide solution (concentrations ranging from 0 to 800 μg/ml), diluted in RPMI-1640 assay medium without FBS. After incubation at 37° C. for 1 hour, the cells were added LPS (0.1 μg/ml) and further incubated for 4 hours. Cells treated with Triton X-100 (1%) were used as positive control (100% killing) whereas cells plus medium only were used as negative control. Following the incubation period, 10 μl MTT (5 mg/ml) dissolved in phosphate-buffered saline (PBS) was added to each well, and the plate was further incubated for 2 hours. A volume of 70 μl of the supernatant was then removed and 100 μl acid alcohol (0.04 M HCl in isopropanol) added to each well to dissolve the dark blue crystals. The plate was placed on a shaker for 1 hour at room temperature and read spectrophotometrically at 595 nm in a microtiter plate reader (DTX880 Multimode Detector, Beckman Coulter). Cell survival (%) was then determined from the ΔA595 nm relative to negative control (100% living cells) and expressed as 50% inhibitory concentration (IC50). The IC50 values were estimated from the dose-response curves, which were obtained by averaging at least 3 parallel experiments.

Series [1] has as its system human colorectal adenocarcinoma cell line HT-29. The class given is cell-based. The settings on record: 24 h.
Series [2] relates to human embryonic lung fibroblast cell line MRC-5. The class given is cell-based. The settings on record: 24 h.

Usually IC50 stands for the concentration that gives 50% inhibition.

No end group written: not given here.

As to GWFKKTFHKVSHAVKSGIHA [P17 HC (1-20)], the “Toxicity to THP-1 cells TC50” value in the series with THP-1 cells was “—^b”.

Regarding GWFKKTFHKVSHAVKSGIHAGQRGCSALGF [P17 HC], the IC50 in series [1] amounted to 52 µM; in series [2] it was 53 µM.
